Values of other authors as cited in publication PMC5742115, “Pharmacophore Modeling and in Silico/in Vitro Screening for Human Cytochrome P450 11B1 and Cytochrome P450 11B2 Inhibitors” (Frontiers in Chemistry, 2017).
pIC50: −log10 of the molar value. Read-outs that look alike come from different tables or passages of the source.

Assays:
CYP11B2 = conditions: reported activity, supplementary Table 1, read-out: CYP11B2 IC50, cited from earlier work
CYP11B1 = conditions: reported activity, supplementary Table 1, read-out: CYP11B1 IC50, cited from earlier work

Question: What does the source list for `CCOC(=O)c1cncn1[C@H](C)c1ccccc1` [CHEMBL681, Etomidate]?
Answer: pIC50 (CYP11B2; ref Dorr et al., 1984): 10.00; pIC50 (CYP11B2; ref Roumen et al., 2010): 8.77

Question: Which results are given for `O=C1CCc2cc(-c3cccnc3)ccc2N1` [CHEMBL62811]?
Answer: pIC50 (CYP11B2; ref Lucas et al., 2008b): 7.55; pIC50 (CYP11B1; ref Lucas et al., 2008b): 5.17

Question: What does the source list for `O=c1c2ccccc2oc2c(Br)ccc(Cn3ccnc3)c12` [CHEMBL78322]?
Answer: pIC50 (CYP11B2; ref Gobbi et al., 2013): 8.07; pIC50 (CYP11B1; ref Gobbi et al., 2013): 8.17

Question: Which results are given for `Cc1cncn1Cc1ccc(C#N)cc1` [CHEMBL162496]?
Answer: pIC50 (CYP11B2; ref Roumen et al., 2010): 7.92; pIC50 (CYP11B1; ref Roumen et al., 2010): 6.85

Question: With `Brc1ccc2c(c1)CC/C2=C/c1c[nH]cn1` [CHEMBL174579] as the compound, how does the pIC50 (CYP11B2; ref Ulmschneider et al., 2005b) read?
Answer: Its pIC50 is 7.99.

Question: What does the source list for `N#Cc1ccc2c(c1)CC/C2=C/c1ncc[nH]1` [CHEMBL175091]?
Answer: pIC50 (CYP11B2; ref Ulmschneider et al., 2005b): 7.45; pIC50 (CYP11B1; ref Ulmschneider et al., 2005b): 7.91

Question: With `Clc1ccc2c(c1)/C(=C/c1cnc[nH]1)CCC2` [CHEMBL175144] as the compound, how does the pIC50 (CYP11B2; ref Ulmschneider et al., 2005b) read?
Answer: Its pIC50 is 7.33.

Question: With `Clc1ccc2c(c1)CC/C2=C\c1ccncc1` [CHEMBL175554] as the compound, how does the pIC50 (CYP11B2; ref Ulmschneider et al., 2005a) read?
Answer: Its pIC50 is 7.74.

Question: What about the pIC50 (CYP11B1; ref Ulmschneider et al., 2005a) of the same compound?
Answer: The pIC50 was 5.82.

Question: With `COc1ccc2c(c1)CC/C2=C/c1ccncc1` [CHEMBL175609] as the compound, how does the pIC50 (CYP11B2; ref Ulmschneider et al., 2005a) read?
Answer: Its pIC50 is 7.26.

Question: With `Clc1ccc2c(c1)CC/C2=C/c1c[nH]cn1` [CHEMBL175688] as the compound, how does the pIC50 (CYP11B2; ref Ulmschneider et al., 2005b) read?
Answer: Its pIC50 is 8.43.

Question: And the pIC50 (CYP11B1; ref Ulmschneider et al., 2005b)?
Answer: The pIC50 was 7.71.

Question: With `COc1cccc2c1/C(=C/c1cccnc1)CC2` [CHEMBL175791] as the compound, how does the pIC50 (CYP11B2; ref Ulmschneider et al., 2005a) read?
Answer: Its pIC50 is 7.57.

Question: What about the pIC50 (CYP11B1; ref Ulmschneider et al., 2005a) of the same compound?
Answer: Its pIC50 is 6.02.

Question: With `Clc1ccc2c(c1)CC/C2=C/c1ccncc1` [CHEMBL175799] as the compound, how does the pIC50 (CYP11B2; ref Ulmschneider et al., 2005a) read?
Answer: Its pIC50 is 7.44.

Question: What about the pIC50 (CYP11B1; ref Ulmschneider et al., 2005a) of the same compound?
Answer: The pIC50 was 6.52.

Question: With `C(=C1/CCc2ccccc21)/c1ccncc1` [CHEMBL175962] as the compound, how does the pIC50 (CYP11B2; ref Ulmschneider et al., 2005a) read?
Answer: Its pIC50 is 8.10.

Question: With `COc1ccc2c(c1)CCC/C2=C\c1ccncc1` [CHEMBL175979] as the compound, how does the pIC50 (CYP11B2; ref Ulmschneider et al., 2005a) read?
Answer: Its pIC50 is 7.66.

Question: With `COc1ccc2c(c1)CC/C2=C/c1cccnc1` [CHEMBL176101] as the compound, how does the pIC50 (CYP11B2; ref Ulmschneider et al., 2005a) read?
Answer: The pIC50 was 7.59.

Question: And the pIC50 (CYP11B1; ref Ulmschneider et al., 2005a)?
Answer: The pIC50 was 6.10.

Question: Which results are given for `Clc1cccc2c1CC/C2=C\c1cccnc1` [CHEMBL176287]?
Answer: pIC50 (CYP11B2; ref Ulmschneider et al., 2005a): 8.05; pIC50 (CYP11B1; ref Ulmschneider et al., 2005a): 6.52

Question: With `COc1ccc2c(c1)CC/C2=C\c1cccnc1` [CHEMBL176609] as the compound, how does the pIC50 (CYP11B2; ref Ulmschneider et al., 2005a) read?
Answer: Its pIC50 is 7.47.

Question: What about the pIC50 (CYP11B1; ref Ulmschneider et al., 2005a) of the same compound?
Answer: The pIC50 was 5.84.

Question: With `Brc1ccc2c(c1)CC/C2=C\c1cnc[nH]1` [CHEMBL177293] as the compound, how does the pIC50 (CYP11B2; ref Ulmschneider et al., 2005a) read?
Answer: The pIC50 was 7.43.

Question: What about the pIC50 (CYP11B2; ref Ulmschneider et al., 2005b) of the same compound?
Answer: The pIC50 was 7.03.

Question: And the pIC50 (CYP11B1; ref Ulmschneider et al., 2005a)?
Answer: The pIC50 was 5.71.

Question: What does the source list for `C(=C1/CCc2ccccc21)/c1cnc[nH]1` [CHEMBL177468]?
Answer: pIC50 (CYP11B2; ref Ulmschneider et al., 2005b): 7.39; pIC50 (CYP11B1; ref Ulmschneider et al., 2005b): 7.53

Question: With `C(=C1\CCc2ccccc21)/c1c[nH]cn1` [CHEMBL178036] as the compound, how does the pIC50 (CYP11B2; ref Ulmschneider et al., 2005b) read?
Answer: The pIC50 was 7.96.

Question: And the pIC50 (CYP11B1; ref Ulmschneider et al., 2005b)?
Answer: Its pIC50 is 8.21.

Question: With `Fc1ccc2c(c1)CC/C2=C/c1ccncc1` [CHEMBL179144] as the compound, how does the pIC50 (CYP11B2; ref Ulmschneider et al., 2005b) read?
Answer: The pIC50 was 7.54.

Question: And the pIC50 (CYP11B1; ref Ulmschneider et al., 2005b)?
Answer: The pIC50 was 7.47.

Question: With `C(=C1\CCc2ccccc21)/c1ccncc1` [CHEMBL179149] as the compound, how does the pIC50 (CYP11B2; ref Ulmschneider et al., 2005a) read?
Answer: The pIC50 was 7.74.

Question: And the pIC50 (CYP11B1; ref Ulmschneider et al., 2005a)?
Answer: Its pIC50 is 6.03.

Question: With `Brc1ccc2c(c1)CC/C2=C/c1ccncc1` [CHEMBL179222] as the compound, how does the pIC50 (CYP11B2; ref Ulmschneider et al., 2005a) read?
Answer: The pIC50 was 7.25.

Question: And the pIC50 (CYP11B1; ref Ulmschneider et al., 2005a)?
Answer: Its pIC50 is 6.32.

Question: With `Fc1ccc2c(c1)CC/C2=C/c1c[nH]cn1` [CHEMBL179247] as the compound, how does the pIC50 (CYP11B1; ref Ulmschneider et al., 2005b) read?
Answer: The pIC50 was 7.95.

Question: With `Cc1ccc2c(c1)/C(=C\c1ccncc1)CC2` [CHEMBL192077] as the compound, how does the pIC50 (CYP11B2; ref Ulmschneider et al., 2005a) read?
Answer: Its pIC50 is 8.10.

Question: With `COc1ccc2c(c1)CC/C2=C\c1cncs1` [CHEMBL192155] as the compound, how does the pIC50 (CYP11B2; ref Ulmschneider et al., 2005a) read?
Answer: Its pIC50 is 7.77.

Question: With `CCOc1ccc2cc(-c3cccnc3)ccc2c1` [CHEMBL193343] as the compound, how does the pIC50 (CYP11B2; ref Voets et al., 2005) read?
Answer: The pIC50 was 7.92.

Question: And the pIC50 (CYP11B1; ref Voets et al., 2005)?
Answer: Its pIC50 is 5.27.

Question: With `COc1ccc2c(c1)CCC/C2=C/c1ccncc1` [CHEMBL193496] as the compound, how does the pIC50 (CYP11B2; ref Ulmschneider et al., 2005a) read?
Answer: The pIC50 was 7.25.

Question: Which results are given for `Brc1ccc2cc(-c3cccnc3)ccc2c1` [CHEMBL193534]?
Answer: pIC50 (CYP11B2; ref Voets et al., 2005): 7.82; pIC50 (CYP11B1; ref Voets et al., 2005): 5.53

Question: With `C(=C1/CC(c2ccccc2)c2ccccc21)/c1cccnc1` (stereo not drawn) [CHEMBL193555] as the compound, how does the pIC50 (CYP11B2; ref Ulmschneider et al., 2005a) read?
Answer: The pIC50 was 8.52.

Question: What does the source list for `C(=C1/CCCc2ccccc21)/c1cccnc1` [CHEMBL193606]?
Answer: pIC50 (CYP11B2; ref Ulmschneider et al., 2005a): 7.66; pIC50 (CYP11B1; ref Ulmschneider et al., 2005a): 6.15

Question: With `Clc1ccc2c(c1)CC/C2=C/c1cccnc1` [CHEMBL193652] as the compound, how does the pIC50 (CYP11B2; ref Ulmschneider et al., 2005a) read?
Answer: Its pIC50 is 7.14.

Question: What about the pIC50 (CYP11B1; ref Ulmschneider et al., 2005a) of the same compound?
Answer: Its pIC50 is 6.57.

Question: What does the source list for `c1ccc2cc(-c3cnco3)ccc2c1` [CHEMBL193653]?
Answer: pIC50 (CYP11B2; ref Voets et al., 2005): 7.92; pIC50 (CYP11B1; ref Voets et al., 2005): 6.09

Question: With `COc1cc2c(cc1OC)/C(=C/c1ccncc1)CCC2` [CHEMBL193858] as the compound, how does the pIC50 (CYP11B2; ref Ulmschneider et al., 2005a) read?
Answer: Its pIC50 is 7.96.

Question: With `COc1ccc2ccc(-c3cccnc3)cc2c1` [CHEMBL193863] as the compound, how does the pIC50 (CYP11B2; ref Pinto-Bazurco Mendieta et al., 2013) read?
Answer: The pIC50 was 7.17.

Question: What does the source list for `Fc1ccc2c(c1)CC/C2=C\c1cccnc1` [CHEMBL193997]?
Answer: pIC50 (CYP11B2; ref Ulmschneider et al., 2005a): 8.15; pIC50 (CYP11B1; ref Ulmschneider et al., 2005a): 6.51

Question: With `C/C(=C1/CCc2cc(F)ccc21)c1cccnc1` [CHEMBL194047] as the compound, how does the pIC50 (CYP11B1; ref Ulmschneider et al., 2005b) read?
Answer: The pIC50 was 7.02.

Question: Which results are given for `Brc1ccc2c(c1)CC/C2=C\c1cccnc1` [CHEMBL194440]?
Answer: pIC50 (CYP11B2; ref Ulmschneider et al., 2005a): 6.77; pIC50 (CYP11B1; ref Ulmschneider et al., 2005a): 6.49

Question: What does the source list for `COc1cc2ccccc2cc1-n1ccnc1` [CHEMBL194472]?
Answer: pIC50 (CYP11B2; ref Voets et al., 2005): 7.72; pIC50 (CYP11B1; ref Voets et al., 2005): 7.09
